Measurements published in patent publication US10072017B2, “Compounds and methods for the treatment of cystic fibrosis” (Flatley Discovery Lab, LLC, priority 2015, dated 2018).

Target: T1, CFTR (Homo sapiens, UniProt P13569, DEL508-508)
T1 construct: Primary CF airway epithelial cells were obtained from the UNC Cystic Fibrosis Tissue Procurement and Cell Culture Core; host or cells: primary CF airway epithelial cells
Assay: Equivalent current assay in Primary CF airway epithelial cells (NAUC)
Assay type: cell-based
Details: 24 h, normalized to VX809 (3 μM) positive control; for Nauc @ 3 μM: 3 μM test compound; for Nauc @ 10 μM: 10 μM test compound
Method in brief: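 Primary CF airway epithelia differentiated ≥4 weeks at air-liquid interface, treated basolaterally 24 h at 37 °C with test compounds in combination with VX809, 0.1% DMSO vehicle. Equivalent current recorded after 5 μM benzamil, 10 μM forskolin plus 1 μM VX770, then CFTR-172/bumetanide 20 μM; vehicle-subtracted AUC normalized to 3 μM VX809 (NAUC), median of n≥4, sigmoid fit for EC50.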

T1 sequence (P13569 with tags, fused parts or gaps DEL508-508): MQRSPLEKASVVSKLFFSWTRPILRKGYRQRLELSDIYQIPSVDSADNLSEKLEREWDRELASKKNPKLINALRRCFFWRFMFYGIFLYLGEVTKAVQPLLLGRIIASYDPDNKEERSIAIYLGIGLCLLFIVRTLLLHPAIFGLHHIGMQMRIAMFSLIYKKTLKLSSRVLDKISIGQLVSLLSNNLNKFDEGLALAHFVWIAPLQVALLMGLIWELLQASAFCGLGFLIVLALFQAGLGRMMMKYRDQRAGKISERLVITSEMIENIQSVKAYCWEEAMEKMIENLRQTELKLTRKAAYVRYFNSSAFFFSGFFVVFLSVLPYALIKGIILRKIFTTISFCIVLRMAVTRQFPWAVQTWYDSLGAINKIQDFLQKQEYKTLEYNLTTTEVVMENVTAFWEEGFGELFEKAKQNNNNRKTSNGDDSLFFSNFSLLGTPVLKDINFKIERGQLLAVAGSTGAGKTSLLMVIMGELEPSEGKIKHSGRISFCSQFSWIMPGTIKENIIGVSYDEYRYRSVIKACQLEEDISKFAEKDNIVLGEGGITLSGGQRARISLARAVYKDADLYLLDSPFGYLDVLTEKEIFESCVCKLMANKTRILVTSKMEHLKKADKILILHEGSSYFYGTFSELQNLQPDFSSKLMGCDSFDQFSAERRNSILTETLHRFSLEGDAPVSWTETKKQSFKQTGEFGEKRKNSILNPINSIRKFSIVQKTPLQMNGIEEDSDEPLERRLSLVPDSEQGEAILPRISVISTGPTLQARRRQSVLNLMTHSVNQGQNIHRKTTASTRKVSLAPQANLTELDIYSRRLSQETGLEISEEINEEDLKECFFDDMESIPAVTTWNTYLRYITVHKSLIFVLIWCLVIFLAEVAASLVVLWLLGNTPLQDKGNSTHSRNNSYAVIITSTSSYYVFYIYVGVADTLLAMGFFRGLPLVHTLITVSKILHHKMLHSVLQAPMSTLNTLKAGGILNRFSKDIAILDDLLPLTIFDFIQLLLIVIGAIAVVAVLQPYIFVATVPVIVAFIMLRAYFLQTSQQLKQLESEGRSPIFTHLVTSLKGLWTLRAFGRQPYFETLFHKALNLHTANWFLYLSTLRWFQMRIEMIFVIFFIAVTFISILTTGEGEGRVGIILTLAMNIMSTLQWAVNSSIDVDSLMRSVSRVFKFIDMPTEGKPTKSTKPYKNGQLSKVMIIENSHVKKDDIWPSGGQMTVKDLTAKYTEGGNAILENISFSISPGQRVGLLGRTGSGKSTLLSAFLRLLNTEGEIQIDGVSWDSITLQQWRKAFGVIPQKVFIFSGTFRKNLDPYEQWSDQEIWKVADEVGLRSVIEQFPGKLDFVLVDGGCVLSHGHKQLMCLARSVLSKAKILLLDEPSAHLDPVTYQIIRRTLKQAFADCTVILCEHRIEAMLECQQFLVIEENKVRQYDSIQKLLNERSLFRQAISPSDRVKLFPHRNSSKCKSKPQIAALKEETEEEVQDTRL

| SMILES | Nauc @ 3 μM | Nauc @ 10 μM |
| --- | --- | --- |
| O=C1C2C3C[C@H](Cl)CN3C3(C(=O)Nc4c(Cl)cc(Cl)cc43)C2C(=O)N1c1cc(Cl)cc(Cl)n1 (some centres unmarked) [Example 65] | ++ (NAUC “++” refers to an observed NAUC 170-140% of positive control) | +++ (NAUC “+++” refers to an observed NAUC >170% of positive control) |
| COC(=O)c1cccc(N2C(=O)C3C4CCCN4C4(C(=O)Nc5c(Cl)cc(Cl)cc54)C3C2=O)c1 (centres unmarked) [Example 66] | ++ (NAUC “++” refers to an observed NAUC 170-140% of positive control) | ++ (NAUC “++” refers to an observed NAUC 170-140% of positive control) |
| N#C[C@H]1CC2C3C(=O)N(c4cc(Cl)cc(Cl)c4)C(=O)C3C3(C(=O)Nc4c(Cl)cc(Cl)cc43)N2C1 (some centres unmarked) [Example 68] | + (NAUC “+” refers to an observed NAUC <140% of positive control) | +++ (NAUC “+++” refers to an observed NAUC >170% of positive control) |
| CC(=O)O[C@H]1CC2C3C(=O)N(c4cc(Cl)cc(Cl)c4)C(=O)C3C3(C(=O)N(C(C)=O)c4c(Cl)cc(Cl)cc43)N2C1 (some centres unmarked) [Example 69] | +++ (NAUC “+++” refers to an observed NAUC >170% of positive control) | + (NAUC “+” refers to an observed NAUC <140% of positive control) |
| CC1CC2C3C(=O)N(c4cc(Cl)cc(Cl)c4)C(=O)C3C3(C(=O)Nc4c(Cl)cc(Cl)cc43)N2C1 (centres unmarked) [Example 71] | + (NAUC “+” refers to an observed NAUC <140% of positive control) | +++ (NAUC “+++” refers to an observed NAUC >170% of positive control) |
| COc1cc(Cl)cc(N2C(=O)C3C4C[C@H](O)CN4C4(C(=O)Nc5c(Cl)cc(Cl)cc54)C3C2=O)c1 (some centres unmarked) [Example 74] | +++ (NAUC “+++” refers to an observed NAUC >170% of positive control) | +++ (NAUC “+++” refers to an observed NAUC >170% of positive control) |
| O=C1C2C3CCCN3C3(C(=O)Nc4c(Cl)cccc43)C2C(=O)N1c1cc(Cl)cc(Cl)c1 (centres unmarked) [Example 75] | ++ (NAUC “++” refers to an observed NAUC 170-140% of positive control) | + (NAUC “+” refers to an observed NAUC <140% of positive control) |
| COc1cc(Cl)cc(N2C(=O)C3C4C[C@H](Cl)CN4C4(C(=O)Nc5c(Cl)cc(Cl)cc54)C3C2=O)c1 (some centres unmarked) [Example 76] | +++ (NAUC “+++” refers to an observed NAUC >170% of positive control) | +++ (NAUC “+++” refers to an observed NAUC >170% of positive control) |
| COc1c(Cl)cc(N2C(=O)C3C4CCCN4C4(C(=O)Nc5c(Cl)cc(Cl)cc54)C3C2=O)cc1Cl (centres unmarked) [Example 77] | +++ (NAUC “+++” refers to an observed NAUC >170% of positive control) | +++ (NAUC “+++” refers to an observed NAUC >170% of positive control) |
| COc1c(Cl)cc(N2C(=O)C3C4C[C@H](F)CN4C4(C(=O)Nc5c(Cl)cc(Cl)cc54)C3C2=O)cc1Cl (some centres unmarked) [Example 78] | +++ (NAUC “+++” refers to an observed NAUC >170% of positive control) | +++ (NAUC “+++” refers to an observed NAUC >170% of positive control) |
| COc1c(Cl)cc(N2C(=O)C3C4C[C@H](Cl)CN4C4(C(=O)Nc5c(Cl)cc(Cl)cc54)C3C2=O)cc1Cl (some centres unmarked) [Example 79] | +++ (NAUC “+++” refers to an observed NAUC >170% of positive control) | +++ (NAUC “+++” refers to an observed NAUC >170% of positive control) |
| O=C1C2C3C[C@H](F)CN3C3(C(=O)Nc4c(Cl)cc(Cl)cc43)C2C(=O)N1c1cc(O)cc(Cl)c1 (some centres unmarked) [Example 80] | ++ (NAUC “++” refers to an observed NAUC 170-140% of positive control) | ++ (NAUC “++” refers to an observed NAUC 170-140% of positive control) |
| O=C1C2C3C[C@H](Cl)CN3C3(C(=O)Nc4c(Cl)cc(Cl)cc43)C2C(=O)N1c1cc(O)cc(Cl)c1 (some centres unmarked) [Example 81] | + (NAUC “+” refers to an observed NAUC <140% of positive control) | ++ (NAUC “++” refers to an observed NAUC 170-140% of positive control) |
| O=C1C2C3C[C@H](O)CN3C3(C(=O)Nc4c(Cl)cc(Cl)cc43)C2C(=O)N1c1cc(Cl)c(O)c(Cl)c1 (some centres unmarked) [Example 82] | + (NAUC “+” refers to an observed NAUC <140% of positive control) | ++ (NAUC “++” refers to an observed NAUC 170-140% of positive control) |
| O=C1C2C3C[C@H](Cl)CN3C3(C(=O)Nc4c(Cl)cc(Cl)cc43)C2C(=O)N1c1cc(Cl)c(O)c(Cl)c1 (some centres unmarked) [Example 83] | ++ (NAUC “++” refers to an observed NAUC 170-140% of positive control) | +++ (NAUC “+++” refers to an observed NAUC >170% of positive control) |
| O=C1C2C3CCCN3C3(C(=O)Nc4ccc(Cl)cc43)C2C(=O)N1c1cc(Cl)cc(Cl)c1 (centres unmarked) [Example 85] | ++ (NAUC “++” refers to an observed NAUC 170-140% of positive control) | +++ (NAUC “+++” refers to an observed NAUC >170% of positive control) |

| SMILES | Nauc @ 3 μM | Nauc @ 10 μM |
| --- | --- | --- |
| O=C1C2C(Cl)(C(=O)N1c1cc(Cl)cc(Cl)c1)C1CCCN1C21C(=O)Nc2c(Cl)cc(Cl)cc21 (centres unmarked) [Example 89] | + (NAUC “+” refers to an observed NAUC <140% of positive control) | ++ (NAUC “++” refers to an observed NAUC 170-140% of positive control) |
| CC(=O)Oc1c(Cl)cc(Cl)cc1N1C(=O)C2C3CCCN3C3(C(=O)Nc4c(Cl)cc(Cl)cc43)C2C1=O (centres unmarked) [Example 90] | + (NAUC “+” refers to an observed NAUC <140% of positive control) | +++ (NAUC “+++” refers to an observed NAUC >170% of positive control) |
| CC(=O)Oc1c(Cl)cc(Cl)cc1N1C(=O)C2C3C[C@H](O)CN3C3(C(=O)Nc4c(Cl)cc(Cl)cc43)C2C1=O (some centres unmarked) [Example 91] | + (NAUC “+” refers to an observed NAUC <140% of positive control) | +++ (NAUC “+++” refers to an observed NAUC >170% of positive control) |
| CC(=O)Oc1c(Cl)cc(Cl)cc1N1C(=O)C2C3C[C@H](F)CN3C3(C(=O)Nc4c(Cl)cc(Cl)cc43)C2C1=O (some centres unmarked) [Example 92] | +++ (NAUC “+++” refers to an observed NAUC >170% of positive control) | + (NAUC “+” refers to an observed NAUC <140% of positive control) |
| CC(=O)Oc1c(Cl)cc(Cl)cc1N1C(=O)C2C3C[C@H](Cl)CN3C3(C(=O)Nc4c(Cl)cc(Cl)cc43)C2C1=O (some centres unmarked) [Example 93] | ++ (NAUC “++” refers to an observed NAUC 170-140% of positive control) | +++ (NAUC “+++” refers to an observed NAUC >170% of positive control) |
| O=C1C2C3C4OC4CN3C3(C(=O)Nc4c(Cl)cc(Cl)cc43)C2C(=O)N1c1cc(Cl)cc(Cl)c1 (centres unmarked) [Example 94] | ++ (NAUC “++” refers to an observed NAUC 170-140% of positive control) | +++ (NAUC “+++” refers to an observed NAUC >170% of positive control) |
| O=C1C2C3C[C@H](F)CN3C3(C(=O)Nc4c(Cl)cc(Cl)cc43)C2C(=O)N1c1cc(Cl)cc(Cl)c1O (some centres unmarked) [Example 95] | ++ (NAUC “++” refers to an observed NAUC 170-140% of positive control) | + (NAUC “+” refers to an observed NAUC <140% of positive control) |
| O=C1C2C3C[C@H](Cl)CN3C3(C(=O)Nc4c(Cl)cc(Cl)cc43)C2C(=O)N1c1cc(Cl)cc(Cl)c1O (some centres unmarked) [Example 96] | ++ (NAUC “++” refers to an observed NAUC 170-140% of positive control) | + (NAUC “+” refers to an observed NAUC <140% of positive control) |
| COc1cccc(N2C(=O)C3C4CCCN4C4(C(=O)Nc5c(Cl)cc(Cl)cc54)C3C2=O)c1 (centres unmarked) [Example 97] | + (NAUC “+” refers to an observed NAUC <140% of positive control) | ++ (NAUC “++” refers to an observed NAUC 170-140% of positive control) |
| COc1ccc2c(c1)NC(=O)C21C2C(=O)N(c3cc(Cl)cc(Cl)c3)C(=O)C2C2CCCN21 (centres unmarked) [Example 98] | +++ (NAUC “+++” refers to an observed NAUC >170% of positive control) | +++ (NAUC “+++” refers to an observed NAUC >170% of positive control) |
| O=C1C2C3CC(C(F)F)CN3C3(C(=O)Nc4c(Cl)cc(Cl)cc43)C2C(=O)N1c1cc(Cl)cc(Cl)c1 (centres unmarked) [Example 99] | +++ (NAUC “+++” refers to an observed NAUC >170% of positive control) | +++ (NAUC “+++” refers to an observed NAUC >170% of positive control) |
| O=C1C2C3CC(=C(F)F)CN3C3(C(=O)Nc4c(Cl)cc(Cl)cc43)C2C(=O)N1c1cc(Cl)cc(Cl)c1 (centres unmarked) [Example 100] | +++ (NAUC “+++” refers to an observed NAUC >170% of positive control) | +++ (NAUC “+++” refers to an observed NAUC >170% of positive control) |
| Cc1csc(N2C(=O)C3C4CCCN4C4(C(=O)Nc5c(Cl)cc(Cl)cc54)C3C2=O)n1 (centres unmarked) [Example 101] | + (NAUC “+” refers to an observed NAUC <140% of positive control) | +++ (NAUC “+++” refers to an observed NAUC >170% of positive control) |
| O=C1C2C3CCCN3C3(C(=O)Nc4ccc(C(F)(F)F)cc43)C2C(=O)N1c1cc(Cl)cc(Cl)n1 (centres unmarked) [Example 102] | + (NAUC “+” refers to an observed NAUC <140% of positive control) | ++ (NAUC “++” refers to an observed NAUC 170-140% of positive control) |
| CC1(C)CC2C3C(=O)N(c4cc(Cl)cc(Cl)c4)C(=O)C3C3(C(=O)Nc4c(Cl)cc(Cl)cc43)N2C1 (centres unmarked) [Example 103] | ++ (NAUC “++” refers to an observed NAUC 170-140% of positive control) | +++ (NAUC “+++” refers to an observed NAUC >170% of positive control) |
